“Also recorded” adds a separate entry of the source.
How the values were obtained:
[1] = test system: Obese Zucker rats; assay: In vivo assessment in obese Zucker rats: body weight and food intake; settings: for Food Intake 5 wks / Food Intake 7 wks: obese Zucker rats, daily 400 μg Cr(III)/kg, mean; for Food Intake 5 wks: at 5 weeks; for Food Intake 7 wks: at 7 weeks
[2] = test system: Obese Zucker rats; assay: In vivo assessment in obese Zucker rats: clinical chemistry (AP, BUN, CRT, AST, ALT)
[3] = test system: Obese Zucker rats; assay: In vivo assessment in obese Zucker rats: blood lipid profile (total cholesterol, triglycerides, HDL); settings: daily 400 μg Cr(III)/kg, 8 weeks, mean
[4] = test system: Obese Zucker rats; assay: In vivo assessment in obese Zucker rats: other vascular inflammation markers (cAMP, TNFα, IL-6, OxyDNA); settings: for IL-6 / TNFα / cAMP / OxyDNA: obese Zucker rats, daily 400 μg Cr(III)/kg, 8 weeks, mean ± SE; for OxyDNA: oxidative DNA damage
[5] = test system: Obese Zucker rats; assay: In vivo assessment in obese Zucker rats: vascular inflammation markers (MCP-1, CRP, RBP-4, leptin, ICAM, adiponectin); settings: for C-reactive protein, effect in words / adiponectin levels, effect in words / intracellular adhesion molecule, effect in words / monocyte chemotactic protein-1, effect in words / Leptin / RBP-4 / Adiponectin / CRP / ICAM / MCP-1: obese Zucker rats, 8 weeks; for C-reactive protein, effect in words / adiponectin levels, effect in words / intracellular adhesion molecule, effect in words / monocyte chemotactic protein-1, effect in words: effect of administration; for Leptin / RBP-4 / Adiponectin / CRP / ICAM / MCP-1: daily 400 μg Cr(III)/kg, mean; for Adiponectin / CRP / ICAM / MCP-1: plasma, ELISA
[6] = test system: Obese Zucker rats; assay: In vivo assessment in obese Zucker rats: key biological parameters (fasting glucose, HbA1c, vitamin C, GSH, RBC lipid peroxidation); settings: for RBC Lipid Peroxidase: malondialdehyde by thiobarbituric acid; for RBC Lipid Peroxidase / blood vitamin C levels, effect in words / fasting glucose, effect in words / glycosylated hemoglobin, effect in words / red blood cell lipid peroxidation, effect in words / Fasting Glucose / GSH / HbA1c / Vitamin C: obese Zucker rats, 8 weeks; for RBC Lipid Peroxidase / Fasting Glucose / GSH / HbA1c / Vitamin C: daily 400 μg Cr(III)/kg, mean; for blood vitamin C levels, effect in words / fasting glucose, effect in words / glycosylated hemoglobin, effect in words / red blood cell lipid peroxidation, effect in words: effect of administration; for Fasting Glucose: fasted overnight; for Vitamin C: plasma
[7] = compared to chromium nicotinate-glycine-cysteine-glutamic acid GTF complex of Toepfer et al.
[8] = listed as Chromium dinicocysteinate
[9] = listed as chromium dinicocysteinate
[10] = over chromium nicotinate, chromium picolinate and chromium histidinate

Chromium Dinicocysteinate [Cr(nic)2Cys]
food intake vs GTF complex, in words [1, 7]: reduced
food intake, effect in words ([1]; effect of administration): reduction
Food Intake 5 wks [1]: 34.43 g/day
Food Intake 7 wks [1]: 38.62 g/day
alkaline phosphatase activities, effect in words ([2]; Zucker diabetic fatty rats, supplemented group): reduces
ALT vs GTF complex, in words [2, 7]: decreased levels
AST vs GTF complex, in words [2, 7]: decreased levels
blood creatinine, effect in words ([2]; effect of administration): reducing
ALT (Alanine Aminotransferease) ([2]; obese Zucker rats, mean ± SE): 99.00 u/L
AP (Alkaline phosphatase) ([2]; obese Zucker rats, mean ± SE): 35.15 u/L
Anion Gap ([2]; obese Zucker rats, mean ± SE): 29.62
BUN (Blood Urea Nitrogen) ([2]; obese Zucker rats, mean ± SE): 18.23 mg/dL
CRT (Creatinine) ([2]; obese Zucker rats, mean ± SE): 0.41 mg/dL
Total Bilirubin ([2]; obese Zucker rats, mean ± SE): 0.05 mg/dL
HDL [3]: 66.46 mg/dL
Total Cholesterol [3]: 188.46 mg/dL
Triglyceride [3]: 550.89 mg/dL
OxyDNA vs GTF complex, in words [4, 7]: decreased levels
TNFα vs GTF complex, in words [4, 7]: decreased levels
IL-6 [4]: 95.02 ± 1.99 pg/mL
TNFα [4]: 17.72 ± 3.35 pg/mL
cAMP [4]: 33.26 ± 2.61 pmol/mL
TNFα vs comparators, in words ([4]; over chromium picolinate and chromium histidinate): lowered levels
OxyDNA [4]: 46.92 ± 2.24 ng/mL
adiponectin vs GTF complex, in words [5, 7]: increased levels
C-reactive protein, effect in words [5, 8]: reductions
adiponectin levels, effect in words [5, 8]: elevation
intracellular adhesion molecule, effect in words [5, 8]: reductions
monocyte chemotactic protein-1, effect in words [5, 8]: reductions
C-reactive protein, effect in words [5, 9]: reducing; also recorded: reductions
adiponectin levels, effect in words [5, 9]: increases
intracellular adhesion molecule, effect in words [5, 9]: reducing
monocyte chemotactic protein-1, effect in words [5, 9]: reducing; also recorded: reductions
Leptin [5]: 407.32 pg/mL
RBP-4 [5]: 49670.13 ng/mL
C-reactive protein vs comparators, in words [5, 10]: decreased levels
ICAM vs comparators, in words [5, 10]: decreased levels
adiponectin vs comparators, in words [5, 10]: increased levels
MCP-1 vs comparator, in words ([5]; over chromium picolinate): lower levels
Adiponectin [5]: 12732.11 ng/mL
CRP [5]: 569.96 ng/mL
ICAM [5]: 17057.51 pg/mL
MCP-1 [5]: 2829.17 pg/mL
fasting glucose vs GTF complex, in words [6, 7]: decreased levels
glycosylated hemoglobin vs GTF complex, in words [6, 7]: decreased levels
red blood cell lipid peroxidation vs GTF complex, in words [6, 7]: decreased levels
vitamin C vs GTF complex, in words [6, 7]: increased levels
RBC Lipid Peroxidase [6]: 1.81 nmol/mL
blood vitamin C levels, effect in words [6, 8]: elevation
fasting glucose, effect in words [6, 8]: reductions
glycosylated hemoglobin, effect in words [6, 8]: reductions
red blood cell lipid peroxidation, effect in words [6, 8]: reductions
blood vitamin C levels, effect in words [6, 9]: increased
fasting glucose, effect in words [6, 9]: reducing
glycosylated hemoglobin, effect in words [6, 9]: reducing
red blood cell lipid peroxidation, effect in words [6, 9]: reducing; also recorded: reduced
Fasting Glucose [6]: 446.24 mg/dL
GSH [6]: 4.74 µmol/g
HbA1c [6]: 14.76%
fasting glucose vs comparators, in words [6, 10]: decreased levels
glycosylated hemoglobin vs comparators, in words [6, 10]: decreased levels
vitamin C vs comparators, in words [6, 10]: increased levels
red blood cell lipid peroxidase vs comparator, in words ([6]; over chromium picolinate): lower levels
Vitamin C [6]: 0.18 mg %

Chromium Dinicotiante Glutamate [Cr(nic)2Glu]
Food Intake 5 wks [1]: 37.51 g/day
Food Intake 7 wks [1]: 39.92 g/day
BUN/CRT Ratio ([2]; obese Zucker rats, mean ± SE): 44.71
HDL [3]: 65.57 mg/dL
Total Chol/HDL [3]: 2.94 ratio
Total Cholesterol [3]: 192.14 mg/dL
Triglyceride [3]: 666.50 mg/dL
IL-6 [4]: 89.50 ± 3.22 pg/mL
cAMP [4]: 29.97 ± 1.43 pmol/mL
OxyDNA [4]: 43.62 ± 2.69 ng/mL
Leptin [5]: 378.02 pg/mL
RBP-4 [5]: 46720.00 ng/mL
Adiponectin [5]: 12446.67 ng/mL
CRP [5]: 519.94 ng/mL
ICAM [5]: 16980.59 pg/mL
MCP-1 [5]: 3197.58 pg/mL
RBC Lipid Peroxidase [6]: 2.30 nmol/mL
Fasting Glucose [6]: 490.43 mg/dL
GSH [6]: 5.05 µmol/g
HbA1c [6]: 14.69%
Vitamin C [6]: 0.14 mg %

Chromium Dinicotinate Argininate [Cr(nic)2Arg]
Food Intake 5 wks [1]: 40.22 g/day
Food Intake 7 wks [1]: 45.28 g/day
HDL [3]: 69.78 mg/dL
Total Chol/HDL [3]: 3.00 ratio
Total Cholesterol [3]: 186.16 mg/dL
Triglyceride [3]: 554.65 mg/dL
IL-6 [4]: 92.35 ± 2.79 pg/mL
TNFα [4]: 17.84 ± 1.26 pg/mL
cAMP [4]: 38.96 ± 3.88 pmol/mL
OxyDNA [4]: 58.26 ± 2.57 ng/mL
Leptin [5]: 335.80 pg/mL
RBP-4 [5]: 52537.50 ng/mL
Adiponectin [5]: 9279.38 ng/mL
CRP [5]: 628.49 ng/mL
ICAM [5]: 18591.76 pg/mL
MCP-1 [5]: 3235.62 pg/mL
RBC Lipid Peroxidase [6]: 2.47 nmol/mL
Fasting Glucose [6]: 628.87 mg/dL
GSH [6]: 4.89 µmol/g
HbA1c [6]: 16.56%
Vitamin C [6]: 0.14 mg %

From patent publication US9700546B2, “Trivalent chromium compounds, compositions and methods of use” (INTERHEALTH NUTRACEUTICALS, INC., priority 2006, dated 2017)
